The source made the active and inactive calls. How the calls were made is not given here.
System: CCRIS mutagenicity, Ames/micronucleus/aberration tests
Test: CCRIS mutagenicity studies
[1] = Test System: AMES SALMONELLA TYPHIMURIUM, Strain/Indicator: TA98, Metabolic Activation: NONE, Method: PREINCUBATION
[2] = Test System: AMES SALMONELLA TYPHIMURIUM, Strain/Indicator: TA100, Metabolic Activation: NONE, Method: PREINCUBATION
[3] = Test System: AMES SALMONELLA TYPHIMURIUM, Strain/Indicator: TA1535, Metabolic Activation: NONE, Method: PREINCUBATION
[4] = Test System: AMES SALMONELLA TYPHIMURIUM, Strain/Indicator: TA1537, Metabolic Activation: NONE, Method: PREINCUBATION
[5] = Test System: AMES SALMONELLA TYPHIMURIUM, Strain/Indicator: TA98, Metabolic Activation: RAT, LIVER, S-9, AROCLOR 1254, Method: STANDARD PLATE
[6] = Test System: AMES SALMONELLA TYPHIMURIUM, Strain/Indicator: TA98, Metabolic Activation: NONE, Method: STANDARD PLATE
[7] = Test System: AMES SALMONELLA TYPHIMURIUM, Strain/Indicator: TA100, Metabolic Activation: NONE, Method: STANDARD PLATE
[8] = Test System: AMES SALMONELLA TYPHIMURIUM, Strain/Indicator: TA100, Metabolic Activation: RAT, LIVER, S-9, AROCLOR 1254, Method: STANDARD PLATE
[9] = Test System: AMES SALMONELLA TYPHIMURIUM, Strain/Indicator: TA1538, Metabolic Activation: NONE, Method: STANDARD PLATE
[10] = Test System: AMES SALMONELLA TYPHIMURIUM, Strain/Indicator: TA1538, Metabolic Activation: RAT, LIVER, S-9, AROCLOR 1254, Method: STANDARD PLATE

Measured: mutagenic call

O=Cc1cccc(Cl)c1
inactive: [1] inactive; negative | Test System: AMES SALMONELLA TYPHIMURIUM, Strain/Indicator: TA98, Metabolic Activation: RAT LIVER S-9, PCB, Method: PREINCUBATION inactive; negative | [2] inactive; negative | Test System: AMES SALMONELLA TYPHIMURIUM, Strain/Indicator: TA100, Metabolic Activation: RAT LIVER S-9, PCB, Method: PREINCUBATION inactive; negative | Test System: AMES SALMONELLA TYPHIMURIUM, Strain/Indicator: TA104, Metabolic Activation: NONE, Method: PREINCUBATION inactive; negative | Test System: AMES SALMONELLA TYPHIMURIUM, Strain/Indicator: TA104, Metabolic Activation: RAT LIVER S-9, PCB, Method: PREINCUBATION inactive; negative | Test System: E.COLI, Strain/Indicator: WP2 UVRA, Metabolic Activation: NONE, Method: PREINCUBATION inactive; negative | Test System: E.COLI, Strain/Indicator: WP2 UVRA, Metabolic Activation: RAT LIVER S-9, PCB, Method: PREINCUBATION inactive; negative

OC1CCCCC1
inactive: Test System: AMES SALMONELLA TYPHIMURIUM, Strain/Indicator: TA98, Metabolic Activation: HAMSTER, LIVER, S-9, AROCLOR 1254, Method: PREINCUBATION inactive; negative | [1] inactive; negative | Test System: AMES SALMONELLA TYPHIMURIUM, Strain/Indicator: TA98, Metabolic Activation: RAT, LIVER, S-9, AROCLOR 1254, Method: PREINCUBATION inactive; negative | Test System: AMES SALMONELLA TYPHIMURIUM, Strain/Indicator: TA100, Metabolic Activation: HAMSTER, LIVER, S-9, AROCLOR 1254, Method: PREINCUBATION inactive; negative | [2] inactive; negative | Test System: AMES SALMONELLA TYPHIMURIUM, Strain/Indicator: TA100, Metabolic Activation: RAT, LIVER, S-9, AROCLOR 1254, Method: PREINCUBATION inactive; negative | Test System: AMES SALMONELLA TYPHIMURIUM, Strain/Indicator: TA1535, Metabolic Activation: HAMSTER, LIVER, S-9, AROCLOR 1254, Method: PREINCUBATION inactive; negative | [3] inactive; negative | Test System: AMES SALMONELLA TYPHIMURIUM, Strain/Indicator: TA1535, Metabolic Activation: RAT, LIVER, S-9, AROCLOR 1254, Method: PREINCUBATION inactive; negative | Test System: AMES SALMONELLA TYPHIMURIUM, Strain/Indicator: TA1537, Metabolic Activation: HAMSTER, LIVER, S-9, AROCLOR 1254, Method: PREINCUBATION inactive; negative | [4] inactive; negative | Test System: AMES SALMONELLA TYPHIMURIUM, Strain/Indicator: TA1537, Metabolic Activation: RAT, LIVER, S-9, AROCLOR 1254, Method: PREINCUBATION inactive; negative

Cn1c(N)nc2c3nc(-c4ccccc4)c(-c4ccccc4)nc3ccc21
inactive: [5] inactive; negative

CC(O)CN(CC(O)CO)N=O (stereo unspecified)
inactive: Test System: AMES SALMONELLA TYPHIMURIUM, Strain/Indicator: TA100, Metabolic Activation: HAMSTER, LIVER, S-9, 3-METHYLCHOLANTHRENE, Method: PREINCUBATION inactive; negative | Test System: AMES SALMONELLA TYPHIMURIUM, Strain/Indicator: TA100, Metabolic Activation: HAMSTER, LIVER, S-9, Method: PREINCUBATION inactive; negative | Test System: AMES SALMONELLA TYPHIMURIUM, Strain/Indicator: TA100, Metabolic Activation: MOUSE, LIVER, S-9, 3-METHYLCHOLANTHRENE, Method: PREINCUBATION inactive; negative | Test System: AMES SALMONELLA TYPHIMURIUM, Strain/Indicator: TA100, Metabolic Activation: MOUSE, LIVER, S-9, Method: PREINCUBATION inactive; negative | [2] inactive; negative
active: Test System: AMES SALMONELLA TYPHIMURIUM, Strain/Indicator: TA100, Metabolic Activation: HAMSTER, LIVER, S-9, PHENOBARBITAL, Method: PREINCUBATION active; positive | Test System: AMES SALMONELLA TYPHIMURIUM, Strain/Indicator: TA100, Metabolic Activation: MOUSE, LIVER, S-9, PHENOBARBITAL, Method: PREINCUBATION active; positive | Test System: AMES SALMONELLA TYPHIMURIUM, Strain/Indicator: TA100, Method: PREINCUBATION active; positive

COc1cc(N=Nc2ccccc2)ccc1N=Nc1c(S(=O)(=O)O)cc2ccc(N)cc2c1O
active: [5] active; positive | [8] active; positive | [10] active; positive
inactive: [6] inactive; negative | [7] inactive; negative | [9] inactive; negative

COc1ccc([C@@H]2CC(=O)c3c(O)cc(O[C@@H]4O[C@H](CO[C@@H]5O[C@@H](C)[C@H](O)[C@@H](O)[C@H]5O)[C@@H](O)[C@H](O)[C@H]4O)cc3O2)cc1O
inactive: [6] inactive; negative | [5] inactive; negative | [7] inactive; negative | [8] inactive; negative | Test System: AMES SALMONELLA TYPHIMURIUM, Strain/Indicator: TA1535, Metabolic Activation: NONE, Method: STANDARD PLATE inactive; negative | Test System: AMES SALMONELLA TYPHIMURIUM, Strain/Indicator: TA1535, Metabolic Activation: RAT, LIVER, S-9, AROCLOR 1254, Method: STANDARD PLATE inactive; negative | Test System: AMES SALMONELLA TYPHIMURIUM, Strain/Indicator: TA1537, Metabolic Activation: NONE, Method: STANDARD PLATE inactive; negative | Test System: AMES SALMONELLA TYPHIMURIUM, Strain/Indicator: TA1537, Metabolic Activation: RAT, LIVER, S-9, AROCLOR 1254, Method: STANDARD PLATE inactive; negative | [9] inactive; negative | [10] inactive; negative | Test System: E. COLI, Strain/Indicator: WP2, Metabolic Activation: NONE, Method: STANDARD PLATE inactive; negative | Test System: E. COLI, Strain/Indicator: WP2, Metabolic Activation: RAT, LIVER, S-9, AROCLOR 1254, Method: STANDARD PLATE inactive; negative

O=P(O)(O)OP(=O)(O)OP(=O)(O)O
inactive: [1] inactive; negative | Test System: AMES SALMONELLA TYPHIMURIUM, Strain/Indicator: TA98, Metabolic Activation: RAT, LIVER, S-9, KC 500, Method: PREINCUBATION inactive; negative | [2] inactive; negative | Test System: AMES SALMONELLA TYPHIMURIUM, Strain/Indicator: TA100, Metabolic Activation: RAT, LIVER, S-9, KC 500, Method: PREINCUBATION inactive; negative | [3] inactive; negative | Test System: AMES SALMONELLA TYPHIMURIUM, Strain/Indicator: TA1535, Metabolic Activation: RAT, LIVER, S-9, KC 500, Method: PREINCUBATION inactive; negative | [4] inactive; negative | Test System: AMES SALMONELLA TYPHIMURIUM, Strain/Indicator: TA1537, Metabolic Activation: RAT, LIVER, S-9, KC 500, Method: PREINCUBATION inactive; negative | Test System: AMES SALMONELLA TYPHIMURIUM, Strain/Indicator: TA1538, Metabolic Activation: NONE, Method: PREINCUBATION inactive; negative | Test System: AMES SALMONELLA TYPHIMURIUM, Strain/Indicator: TA1538, Metabolic Activation: RAT, LIVER, S-9, KC 500, Method: PREINCUBATION inactive; negative | Test System: E. COLI, Strain/Indicator: WP2 UVRA, Metabolic Activation: NONE, Method: PREINCUBATION inactive; negative | Test System: E. COLI, Strain/Indicator: WP2 UVRA, Metabolic Activation: RAT, LIVER, S-9, KC 500, Method: PREINCUBATION inactive; negative

ClC(CBr)CBr
inactive: Test System: AMES SALMONELLA TYPHIMURIUM, Strain/Indicator: TA100, Metabolic Activation: RAT, LIVER, MICROSOMES, PHENOBARBITAL, Method: STANDARD PLATE inactive; negative
active: Test System: AMES SALMONELLA TYPHIMURIUM, Strain/Indicator: TA100, Metabolic Activation: RAT, LIVER, MICROSOMES, PHENOBARBITAL, NADPH COFACTORS, Method: STANDARD PLATE active; positive

— PubChem BioAssay AID1259407 (Chemical Carcinogenesis Research Information System (CCRIS), 2018)
